From patent US20130296392A1, “METHODS FOR THE TREATMENT OF OVERACTIVE BLADDER” (THERAVIDA, INC., priority 2012, published 2013)

Legend:
healthy individuals [1] = experiment: Stimulated salivary flow (SSF), change from pre-dose baseline; assay type: in vivo, human
Procedure: Stimulated salivary flow (SSF) and dry mouth (assessed using a “visual analog scale,” or VAS) were determined at frequent intervals after administration of each treatment. Urine frequency, urine volume/void, and fluid volume consumed were also assessed for each treatment. […] SSF was measured in the following manner. […] The subject may have expectorated saliva in the containers several times if there was excessive saliva. The SSF values were tabulated at each time point and descriptive statistics were generated by treatment, for measured values and changes from pre-dose baseline. Total weight of saliva over time was analyzed using analysis of variance, with Tukey's method of comparison between treatments. Dry mouth was tabulated at each time point and descriptive statistics were generated by treatment, for measured values and changes from pre-dose baseline. Urine frequency, urine volume/void and fluid volume consumed were tabulated and summarized by treatment.

healthy individuals [2] = experiment: Dry mouth assessment by visual analog scale (VAS); assay type: in vivo, human; conditions: for Change from Baseline of Dry Mouth Assessment (VAS), Mean: VAS 0=not dry, 10=very dry
Procedure: Stimulated salivary flow (SSF) and dry mouth (assessed using a “visual analog scale,” or VAS) were determined at frequent intervals after administration of each treatment. Urine frequency, urine volume/void, and fluid volume consumed were also assessed for each treatment.
The SSF values were tabulated at each time point and descriptive statistics were generated by treatment, for measured values and changes from pre-dose baseline. Total weight of saliva over time was analyzed using analysis of variance, with Tukey's method of comparison between treatments. Dry mouth was tabulated at each time point and descriptive statistics were generated by treatment, for measured values and changes from pre-dose baseline. Urine frequency, urine volume/void and fluid volume consumed were tabulated and summarized by treatment.
For qualitative assessment of dry mouth, the “visual analog scale,” or VAS, scale (0=not dry, 10=very dry, measured in centimeters) was used. Each subject was asked to mark a vertical line the VAS scale on how dry their mouth was at that moment.
VAS is a well-known method. In this method, subjects were shown a line scaled from 0 to 10 cm. Subjects were asked to rate the subjective criterion from 0-10 cm and make a mark on the line corresponding to their rating. For example, subjects were told that 0 cm on the line means no dry mouth at all and 10 cm on the line means extreme dry mouth. The subjects rated their extent of dry mouth on the line. Changes in the extent of dry mouth of a subject were measured using this technique throughout the treatment period.

Row | SMILES | Mean SSF Change from Pre-dose Baseline (healthy individuals [1]; 1 hour post-dose) [g] | Mean SSF Change from Pre-dose Baseline (healthy individuals [1]; 2 hours post-dose) [g] | Mean SSF Change from Pre-dose Baseline (healthy individuals [1]; 3 hours post-dose) [g] | Mean SSF Change from Pre-dose Baseline (healthy individuals [1]; 4 hours post-dose) [g] | Mean SSF Change from Pre-dose Baseline (healthy individuals [1]; 6 hours post-dose) [g] | Mean SSF Change from Pre-dose Baseline (healthy individuals [1]; 9 hours post-dose) [g] | Mean SSF Change from Pre-dose Baseline (healthy individuals [1]; 12 hours post-dose) [g] | SSF after administration, in words (healthy individuals [1]; compared with placebo and pilocarpine alone (Treatment B)) | Change from Baseline of Dry Mouth Assessment (VAS), Mean (healthy individuals [2]; 1 hour post-dose) [cm] | Change from Baseline of Dry Mouth Assessment (VAS), Mean (healthy individuals [2]; 2 hours post-dose) [cm] | Change from Baseline of Dry Mouth Assessment (VAS), Mean (healthy individuals [2]; 3 hours post-dose) [cm] | Change from Baseline of Dry Mouth Assessment (VAS), Mean (healthy individuals [2]; 4 hours post-dose) [cm] | Change from Baseline of Dry Mouth Assessment (VAS), Mean (healthy individuals [2]; 6 hours post-dose) [cm] | Change from Baseline of Dry Mouth Assessment (VAS), Mean (healthy individuals [2]; […] post-dose) [cm] | Mean VAS scores of dry mouth over time (healthy individuals [2]; 1 hour and 2 hour time points, compared with each of the other treatments)
1 | Cc1ccc(O)c([C@H](CCN(C(C)C)C(C)C)c2ccccc2)c1 [Treatment A, tolterodine] | -0.3 | -0.42 | -0.28 | 0.05 | 0.21 | -0.06 | 0.27 | decrease in SSF | 0.03 | 0.63 | 0.97 | 0.56 | 0.00 | 0.56 | 
2 | CC[C@@H]1C(=O)OC[C@@H]1Cc1cncn1C [Treatment B, pilocarpine] | 4.55 | 2.33 | 1.07 | 0.64 | 0.32 | -0.20 | -0.08 |  | −3.00 | −2.34 | −0.94 | −0.69 | −0.41 | −1.38 | markedly lower
